Laboratory results published in US7390910B2, “Compounds for treating tumors” (priority 2003, dated 2008).
Marks after values point to notes of the source that are not given here. Where a SMILES comes first, the peptide text is derived from it. [ ]: non-standard residue; d: D form. NMePhe(β,β-Me2) = CN[C@H](C(=O)O)C(C)(C)c1ccccc1; Tle = CC(C)(C)[C@H](N)C(=O)O; NMeV = CN[C@H](C(=O)O)C(C)C

Experiments:
[1] = test system: bovine microtubule-associated protein (MAP)-rich tubulin; format: biochemical
Protocol: Tubulin Polymerization Assays. For in vitro tubulin polymerization assays, bovine microtubule-associated protein (MAP)-rich tubulin, PEM buffer [80 mM Na-PIPES (pH 6.9), 1 mM MgCl2, and 1 mM EGTA], and GTP are purchased from Cytoskeleton (Denver, Colo.). MAP-rich tubulin (final concentration 1.5 mg/ml) is dissolved in cold PEM buffer containing 1 mM GTP (GPEM) and centrifuged at 12,000×g for 10 min at 4° C. The tubulin solution (100 μl/well) is added rapidly to wells of a low-volume, 96-well plate already containing duplicate aliquots (10 μl) of test compounds in GPEM. […] Control wells contained the same final concentration of DMSO (0.3%). After initiation of the reaction, absorbance at 340 nm is measured every minute for 60 min at 24° C. using a SpectraMax Plus plate reader (Molecular Devices, Sunnyvale, Calif.).

KB85 = test: cells; format: cell-based; conditions: for IC50: 3 days, SRB; for inhibition at 3 µM: 3000 nM
Protocol: (§1) Cell Survival Assay: Standard Pharmacological Test Procedure. […] Compounds are incubated with cells for 3 days.

KB cells = test: cells; format: cell-based; conditions: for IC50: 3 days, SRB; for inhibition at 3 µM: 3000 nM
Protocol: as §1

KBV1 = test: cells; format: cell-based; conditions: for IC50: 3 days, SRB; for inhibition at 3 µM: KB-V1, 3000 nM
Protocol: as §1

| Molecule | Tubulin Polym. % inhibition at 0.3 uM [1] | IC50 (KB85; 72 h) | IC50 (KB cells; Homo sapiens, KB, 72 h) | IC50 (KBV1; Homo sapiens, KB-V1, 72 h) | inhibition at 3 µM (KBV1; Homo sapiens) | further results |
| --- | --- | --- | --- | --- | --- | --- |
| CN[C@H](C(=O)N[C@H](C(=O)N(C)[C@H](/C=C(\C)CO)C(C)C)C(C)(C)C)C(C)(C)c1ccccc1 [Example 81] | 71% | – | – | – | – | IC50 (KB85): 447 nM; IC50 (KB cells): 454 nM; IC50 (KBV1): 1590 nM |
| CN[C@H](C(=O)N[C@H](C(=O)N(C)[C@H](/C=C(\C)C(=O)N1CCC[C@H]1[C@H](OC)[C@@H](C)C(=O)NCCc1ccccc1)C(C)C)C(C)(C)C)C(C)(C)c1ccccc1 [Example 31, N-methyl-3-phenyl-L-valyl-N^1— [(1S,2E)-1-isopropyl-4-((2S)-2-{(1R,2R)-1-methoxy-2-methyl-3-oxo-[(2-phenethyl)amino]propyl}pyrrolidin-1-yl)-3-methyl-4-oxobut-2-enyl]-N^1,3-dimethyl-L-valinamide] | 69% | – | – | – | – | IC50 (KB85): 5.1 nM; IC50 (KB cells): 0.9 nM; IC50 (KBV1): 191 nM |
| CN[C@H](C(=O)N[C@H](C(=O)N(C)[C@H](C(=O)N1CCC[C@H]1C(=O)OC)C(C)C)C(C)(C)C)C(C)(C)c1ccccc1 [Example 33, Methyl N,β,β-trimethyl-L-phenylalanyl-3-methyl-L-valyl-N-methyl-L-valyl-L-prolinate] (H-[NMePhe(β,β-Me2)][Tle][NMeV]P-OMe) | 19% | 53 nM | 18 nM | 1530 nM | – | – |
| CN[C@H](C(=O)N[C@H](C(=O)N(C)[C@H](/C=C1\NC(=O)NC1=O)C(C)C)C(C)(C)C)C(C)(C)c1ccccc1 [Example 85, N,β,β-trimethyl-L-phenylalanyl-N^1-{(1S)-1-[(Z)-(2,5-dioxo-4-imidazolidinylidene)methyl]-2-methylpropyl}-N^1,3-dimethyl-L-valinamide] | 59% | 1740 nM | 1070 nM | – | 10% | – |
| CN[C@H](C(=O)N[C@H](C(=O)N(C)[C@H](/C=C/S(=O)(=O)O)C(C)C)C(C)(C)C)C(C)(C)c1ccccc1 [Example 64, N,β,β-trimethyl-L-phenylalanyl-N^1-[(1S,2E)-1-isopropyl-3-sulfoprop-2-enyl]-N^1,3-dimethyl-L-valinamide] | 86% | – | – | – | 0% | inhibition at 3 µM (KB85): 1%; inhibition at 3 µM (KB cells; Homo sapiens, 72 h): 2% |
| CN[C@H](C(=O)N[C@H](C(=O)N(C)[C@H](/C=C(\C)C(=O)N(C)OC)C(C)C)C(C)(C)C)C(C)(C)c1ccccc1 [Example 52, N,β,β-trimethyl-L-phenylalanyl-N^1-{(1S,2E)-1-isopropyl-4-[methoxy(methyl)-amino]-3-methyl-4-oxobut-2-enyl}-N^1,3-dimethyl-L-valinamide] | 86% | 47 nM | 11 nM | 392 nM | – | – |
| CN[C@H](C(=O)N[C@H](C(=O)N(C)[C@H](/C=C/P(=O)(O)OC)C(C)C)C(C)(C)C)C(C)(C)c1ccccc1 [Example 69, N,β,β-trimethyl-L-phenylalanyl-N^1-{(1S,2E)-3-[hydroxy(methoxy)phosphoryl]-1-isopropylprop-2-enyl}-N^1,3-dimethyl-L-valinamide] | 59% | – | – | – | 3% | inhibition at 3 µM (KB85): 0%; inhibition at 3 µM (KB cells; Homo sapiens, 72 h): 0% |
| CN[C@H](C(=O)N[C@H](C(=O)N(C)[C@H](/C=C(\C)C(=O)NCc1ccc(-c2ccccc2)cc1)C(C)C)C(C)(C)C)C(C)(C)c1ccccc1 [Example 53, N,β,β-trimethyl-L-phenylalanyl-N-1-{(1S,2E)-4-[(1,1′-biphenyl-4-ylmethyl)amino]-1-isopropyl-3-methyl-4-oxobut-2-enyl}-N^1,3-dimethyl-L-valinamide] | 11% | – | – | – | – | IC50 (KB85): 1680 nM; IC50 (KB cells): 667 nM; KBV1 % inhibition @ 3000 nM (KBV1; 3000 nM): 29% |
| CN[C@H](C(=O)N[C@H](C(=O)N(C)[C@H](/C=C(\C)C(=O)N1CCC[C@H]1C(=O)OC)C(C)C)C(C)(C)C)C(C)(C)C1CCCCC1 [Example 45, 3-cyclohexyl-N-methyl-L-valyl-N^1-{(1S,2E)-4-[(2S)-2-(methoxycarbonyl)pyrrolidin-1-yl]-1-isopropyl-3-methyl-4-oxobut-2-enyl}-N^1,3-dimethyl-L-valinamide] | 62(2) % | 16 nM | 3.7 nM | 493 nM | – | – |
| N,β,β-trimethyl-L-phenylalanyl-N^1-[(1S,2E)-1-isopropyl-4-((2S)-2-{(1R,2R)-1-methoxy-2-methyl-3-[(4R,5S)-4-methyl-2-oxo-5-phenyl-1,3-oxazolidin-3-yl]-3-oxopropyl}pyrrolidin-1-yl)-3-methyl-4-oxovalinamide [Example 32] | 99(2) % | – | – | – | – | IC50 (KB85): 45 nM; IC50 (KB cells): 12 nM; IC50 (KBV1): 636 nM |
| CN[C@H](C(=O)N[C@H](C(=O)N(C)[C@H](/C=C(\C)C(=O)N1CCC[C@H]1C(=O)O)C(C)C)C(C)(C)C)C(C)(C)c1cccc(Cl)c1 [Example 24, 3-Chloro-N,β,β-trimethyl-L-phenylalanyl-N^1-{(1S,2E)-4-[(2S)-2-carboxypyrrolidin-1yl]-1-isopropyl-3-methyl-4-oxobut-2-enyl}-N^1,3-dimethyl-L-valinamide] | 94% | 180 nM | 62 nM | – | 17% | – |
| CN[C@H](C(=O)N[C@H](C(=O)N(C)[C@H](/C=C/P(=O)(O)O)C(C)C)C(C)(C)C)C(C)(C)c1ccccc1 [Example 70, N,β,β-trimethyl-L-phenylalanyl-N^1-[(1S,2E)-1-isopropyl-3-phosphonoprop-2-enyl]N^1,3-dimethyl-L-valinamide] | 69% | – | – | – | 3% | inhibition at 3 µM (KB85): 0%; inhibition at 3 µM (KB cells; Homo sapiens, 72 h): 0% |
| CN[C@H](C(=O)N[C@H](C(=O)N(C)[C@H](/C=C(\C)C(=O)N1C[C@H](O)C[C@H]1C(=O)O)C(C)C)C(C)(C)C)C(C)(C)c1ccccc1 [Example 42, N,β,β-trimethyl-L-phenylalanyl-N^1-{(1S,2E)-4-[(2S,4R)-2-carboxy-4-hydroxypyrrolidin-1-yl]-1-isopropyl-3-methyl-4-oxobut-2-enyl}-N^1,3-dimethyl-L-valinamide] | 96% | 1850 nM | 184 nM | – | 0% | – |
| CN[C@H](C(=O)N[C@H](C(=O)N(C)[C@H](/C=C(\C)C(=O)N1CCC[C@H]1C(=O)O)C(C)C)C(C)(C)C)C(C)(C)c1ccccc1 [Example 36, N,β,β-trimethyl-L-phenylalanyl-N^1-{(1S,2E)-4-[(2S)-2-carboxypyrrolidin-1-yl]-1-isopropyl-3-methyl-4-oxobut-2-enyl}-N^1,3-dimethyl-L-valinamide] | 97% | 205 nM | 62 nM | – | 0% | – |
| CN[C@H](C(=O)N[C@H](C(=O)N(C)[C@H](/C=C(\C)C(=O)O)C(C)C)C(C)(C)C)C1(C)CCCc2ccccc21 (stereo partly drawn) [Example 59, (2E,4S)-2,5-dimethyl-4-(methyl{3-methyl-N-[(2S)-2-(methylamino)-2-(1-methyl-1,2,3,4-tetrahydro-1-naphthalenyl)ethanoyl]-L-valyl}amino)-2-hexenoic acid] | 93% | 6.6 nM | 5.5 nM | 76 nM | – | – |
| CNC(C(=O)NC(C(=O)N(C)C(C=C(C)C(=O)CO)C(C)C)C(C)(C)C)C(C)(C)c1ccccc1 (stereo not shown) [Example 90, N-{1-[(5-Hydroxy-1-isopropyl-3-methyl-4-oxo-pent-2-enyl)-methyl-carbamoyl]-2,2-dimethyl-propyl}-3-methyl-2-methylamino-3-phenyl-butyramide] | – | 68 nM | 43 nM | 1130 nM | – | Tubulin Polym. % inhibition at 0.5 uM ([1]; 0.5 uM): 76*** % |
| CN[C@H](C(=O)N[C@H](C(=O)N(C)[C@H](/C=C(\C)C(=O)c1nccs1)C(C)C)C(C)(C)C)C(C)(C)c1ccccc1 [Example 73, N,β,β-trimethyl-L-phenylalanyl-N^1-[(1S,2E)-1-isopropyl-3-methyl-4-oxo-4-(1,3-thiazol-2-yl)but-2-enyl]-N^1,3-dimethyl-L-valinamide] | 33% | 565 nM | 582 nM | 1790 nM | – | – |
| CN[C@H](C(=O)N[C@H](C(=O)N(C)[C@H](/C=C(\C)C(=O)N1CCN(Cc2ccccc2)CC1)C(C)C)C(C)(C)C)C(C)(C)c1ccc(C)c(C)c1 [Example 12, N,β,β,3,4-Pentamethyl-L-phenylalanyl-N^1-[(1S,2E)-4-(4-benzylpiperazin-1-yl)-1-isopropyl-3-methyl-4-oxobut-2-enyl]-N^1,3-dimethyl-L-valinamide] | 51% | 65 nM | 48 nM | 1330 nM | – | – |
| CN[C@H](C(=O)N[C@H](C(=O)N(C)[C@H](/C=C(\C)C(=O)N1CCN(Cc2ccccc2)CC1)C(C)C)C(C)(C)C)C(C)(C)c1cccc(Cl)c1 [Example 16, 3-Chloro-N,β,β-trimethyl-L-phenylalanyl-N^1-[(1S,2E)-4-(4-benzylpiperazin-1-yl)-1-isopropyl-3-methyl-4-oxobut-2-enyl]-N^1,3-dimethyl-L-valinamide] | 62% | 60 nM | 39 nM | 803 nM | – | – |
